Source: patent US5082942A, “Novel derivatives of tetrahydro-2,3,6,7,1H,5H,11H-(1)benzopyrano(6,7,8,ij)quinolizinone-11 usable as markers of organic compounds for the detection of said compounds by chemiluminescence or fluorescence” (Laboratories Eurobio, priority 1988, dated 1992)
Converted amounts (≈) assume the structure as drawn.

Tests used:
[1] = Fluorescence and absorbance measurements; type: physicochemical; settings: for ε, molecular extinction coefficient: 365 nm; for S, fluorescence sensitivity: Table 2; for RF, quantum efficiency of fluorescence: acetone and ethylacetate 75:25, 10^-6 mole/l, 20°C, relative to quinine disulphate
[2] = Chemiluminescence measurements; type: physicochemical; settings: for RC, quantum efficiency of chemiluminescence: 10^-3 mole/l coumarin solution; for RE, excitation efficiency: RC = Rex × RF
[3] = Stability of a solution in tetrahydrofuran (high pressure liquid chromatography and fluorimetric detection); type: physicochemical; settings: 2.10^-3 mole/l in tetrahydrofuran
From the text: The stability of a 2.10^-3 mole/l solution of luminarine-1 in tetrahydrofuran was studied by high pressure liquid chromatography and fluorimetric detection.

[4] = Solubility in organic solvents; type: physicochemical; settings: organic solvent or mixture; in tetrahydrofuran, acetone or methanol
[5] = 2 mg/l in 0.1 N H2SO4; Parker method; cited from earlier work
[6] = TCPO and H2O2, (C102) 1.4 × 10^-3
[7] = TCPO and H2O2, (C102) 1.4 × 10^-6
[8] = TCPO and H2O2, (C102) 1.4 × 10^-7
[9] = TCPO and H2O2, (C102) 1.4 × 10^-8
[10] = TCPO and H2O2, (C102) 1.4 × 10^-9

## CCN(CC)c1ccc2c(C)cc(=O)oc2c1 [COUMARIN-1, dimethylamino-7 methyl-4 coumarin]
[1]
  ε, molecular extinction coefficient: 38 000
  S, fluorescence sensitivity: 57 10^3
  RF, quantum efficiency of fluorescence: 0.55
[2]; DNPO and H2O2
  RC, quantum efficiency of chemiluminescence: 0.18 10^2 E · mole^-1
  RE, excitation efficiency: 0.33 10^-2
[2]; TCPO and H2O2, pH 7.5
  RC, quantum efficiency of chemiluminescence: 0.37 10^2 E · mole^-1
  RE, excitation efficiency: 0.0067

## Cc1cc(=O)oc2c3c4c(cc12)CCCN4CCC3 [COUMARIN-102, tetrahydro-2,3,5,6,7,1H,5H,11H-(1)-benzopyrano (6,7,8-ij) methyl-9 quinolizinone-11]
[1]
  ε, molecular extinction coefficient: 23000 M⁻¹ cm⁻¹
  S, fluorescence sensitivity: 36 10^3
  RF, quantum efficiency of fluorescence: 0.57
[1]; Tables 2 and 3, versus coumarin-1 and coumarin-311
  comparison of fluorescence, absorbance and chemiluminescence properties: has the best fluorescence, absorbance and chemiluminescence properties
[2]; DNPO and H2O2
  RC, quantum efficiency of chemiluminescence: 0.26 10^2 E · mole^-1
  RE, excitation efficiency: 0.45 10^-2
[2]; TCPO and H2O2
  chemiluminescence efficiency RC as a function of concentration: increases with the coumarin 102 concentration
[2]; TCPO and H2O2, pH 7.5
  RC, quantum efficiency of chemiluminescence: 0.37 10^2 E · mole^-1
  RE, excitation efficiency: 0.0065
[2]; [6]
  Imax, maximum intensity: 301 A.U.
  RC, chemiluminescence efficiency: 12.0 10^4 E · mol^-1
  T1/2, time for reaching half the maximum intensity after the maximum time: 6 s
  Tmax, time for reaching the maximum intensity: 12 s
[2]; [7]
  Imax, maximum intensity: 75 A.U.
  RC, chemiluminescence efficiency: 4.14 10^4 E · mol^-1
  T1/2, time for reaching half the maximum intensity after the maximum time: 9 s
  Tmax, time for reaching the maximum intensity: 12 s
[2]; [8]
  Imax, maximum intensity: 31 A.U.
  RC, chemiluminescence efficiency: 2.31 10^4 E · mol^-1
  T1/2, time for reaching half the maximum intensity after the maximum time: 7.2 s
  Tmax, time for reaching the maximum intensity: 12 s
[2]; [9]
  Imax, maximum intensity: 3.2 A.U.
  RC, chemiluminescence efficiency: 0.40 10^4 E · mol^-1
  T1/2, time for reaching half the maximum intensity after the maximum time: 6 s
  Tmax, time for reaching the maximum intensity: 12 s
[2]; [10]
  Imax, maximum intensity: 0.3 A.U.
  RC, chemiluminescence efficiency: 0.20 10^4 E · mol^-1
  T1/2, time for reaching half the maximum intensity after the maximum time: 4.8 s
  Tmax, time for reaching the maximum intensity: 12 s
[2]; pH 4
  Imax, maximum intensity: 24 A.U.
  RC, chemiluminescence efficiency: 1.52 10^4 E · mol^-1
  T1/2, time for reaching half the maximum intensity after the maximum time: 300 s
  Tmax, time for reaching the maximum intensity: 48 s
[2]; pH 4 to 8
  chemiluminescence efficiency as a function of pH: rises up to pH6 and then falls
  maximum intensity as a function of pH: increases significantly with the pH
[2]; pH 5
  Imax, maximum intensity: 17 A.U.
  RC, chemiluminescence efficiency: 1.58 10^4 E · mol^-1
  T1/2, time for reaching half the maximum intensity after the maximum time: 360 s
  Tmax, time for reaching the maximum intensity: 60 s
[2]; pH 6
  Imax, maximum intensity: 25 A.U.
  RC, chemiluminescence efficiency: 2.34 10^4 E · mol^-1
  T1/2, time for reaching half the maximum intensity after the maximum time: 336 s
  Tmax, time for reaching the maximum intensity: 48 s
[2]; pH 7
  Imax, maximum intensity: 110 A.U.
  RC, chemiluminescence efficiency: 2.23 10^4 E · mol^-1
  T1/2, time for reaching half the maximum intensity after the maximum time: 108 s
  Tmax, time for reaching the maximum intensity: 24 s
[2]; pH 8
  Imax, maximum intensity: 245 A.U.
  RC, chemiluminescence efficiency: 1.60 10^4 E · mol^-1
  T1/2, time for reaching half the maximum intensity after the maximum time: 24 s
  Tmax, time for reaching the maximum intensity: 12 s
[2]; pH beyond 5
  Tmax and T1/2 as a function of pH: decrease when the pH increases beyond 5

## Cc1cc(=O)oc2cc(N(C)C)ccc12 [COUMARIN-311, dimethylamino-7 methyl-4 coumarin]
[1]
  ε, molecular extinction coefficient: 26900 M⁻¹ cm⁻¹
  S, fluorescence sensitivity: 40 10^3
  RF, quantum efficiency of fluorescence: 0.52
[2]; DNPO and H2O2
  RC, quantum efficiency of chemiluminescence: 0.13 10^2 E · mole^-1
  RE, excitation efficiency: 0.24 10^-2
[2]; TCPO and H2O2, pH 7.5
  RC, quantum efficiency of chemiluminescence: 0.17 10^2 E · mole^-1
  RE, excitation efficiency: 0.0032

## O=C(Cc1cc(=O)oc2c3c4c(cc12)CCCN4CCC3)ON1C(=O)CCC1=O [luminarine-1, tetrahydro-2,3,6,7,1H,5H, 11H(1)-benzo-pyrano(6,7,8-ij) succinimidoxycarbonylmethyl-9 quinolizinone-11]
[3]; ambient temperature, hydrolysis to acid (VIII)
  stability of solution at ambient temperature: deteriorates significantly in a few hours at ambient temperature
[3]; frozen
  stability of frozen solution: at least two months without any apparent deterioration
[4]
  solubility: ~1000 µg/mL (≈ 2520 µM)

## C=C[C@H]1CN2CC[C@H]1C[C@H]2[C@H](O)c1ccnc2ccc(OC)cc12 [quinine disulphate]
[5]
  quantum efficiency of fluorescence (reference): 0.546
